The conditions of series [1]: rcm bond, 15-membered ring, DCM, 40.0 °C.
Series [2] has as its target T1, full-length NS3-NS4A enzyme (Hepatitis C virus genotype 1a, UniProt P27958).
T1 construct: 3 nM full-length NS3-NS4A enzyme
As to the kind of experiment: HCV protease assay (continuous FRET, full-length enzyme). The format is biochemical. The following applies: 3 nM full-length NS3-NS4A, 3 uM depsipeptide FRET substrate S1; competitive inhibition fit. Here is the method:
HCV protease activity and compound inhibition was monitored using a continuous, fluorescence resonance energy transfer (FRET) assay. Test compounds at various concentrations were added to assay buffer (50 mM MOPS pH 7.5, 50 mM NaCl, 20% glycerol, 0.025% Triton-X 100, 1 mM tris(2-carboxyethyl)phosphine) containing 3 uM depsipeptide FRET substrate S1 (Anaspec) (see Taliani et al. Analytical Biochemistry, 240, 60-67 (1996)) in a white, non-binding 96-well plate (Corning). The reaction was started by the addition of 3 nM full-length NS3-NS4A enzyme. The increase in fluorescence intensity following peptide cleavage was monitored using a Safire fluorescence plate reader (Tecan). The excitation and emission wavelengths were 340 nm and 500 nm, respectively. Inhibition constants (KI) were calculated by non-linear regression analysis using an equation derived for competitive inhibition.

Series [3] is described as follows: in vitro. The following applies: human; 50% reduction of firefly luciferase expression, 3 days incubation; read-out: Replicon CC50. In kind it is cell-based. The protocol: (§1) Cell-based antiviral activity was evaluated in the previously described HCV dual reporter subgenomic replicon system (the '075 application). With this system, the effects of a compound on both HCV replication and cell viability can be simultaneously determined by measuring the intracellular levels of two separate reporter proteins. The dicistronic selectable replicon contains the Renilla luciferase gene such that Renilla luciferase activity within stably-transfected cells serves as a marker of HCV replication. The firefly luciferase gene is stably integrated into and expressed by the Huh-7 host cells. Since firefly luciferase activity is dependent upon cellular transcription and translation, firefly luciferase activity serves as an indicator of cell viability.
(§2) The dual reporter selectable replicon cell line (B6b) was maintained in DMEM supplemented with 10% FBS, L-glutamine, non-essential amino acids, penicillin, streptomycin, and selection agents (200 ug/ml G418 and 6 ug/ml blastocidin). On the first day of the experiment, cells were trypsinized, washed, and diluted in medium lacking the selection agents. Cells were transferred to 96-well, black-walled, clear bottom plates at a density of 2×10^4 cells in 150 ul of medium per well. Cells were allowed to settle for 60 to 90 minutes while compounds were being prepared. Each compound was initially diluted to a 4× working stock (2.56% DMSO in tissue culture medium) that was then serially diluted nine times in half log increments in medium with 2.56% DMSO. Fifty microliters of each dilution were then added in triplicate to the plated cells in order to obtain final IX compound concentrations with 0.64% DMSO. Typical testing concentrations ranged from 320 uM to 10 nM. Control wells containing 0.64% DMSO without compound were also included on each plate.
(§3) After 3 days of incubation under humidity at 37° C. with 5% CO2, plates were microscopically examined for compound precipitation and cell death. Tissue culture medium was then aspirated and cells were lysed with 20 ul of 1× Passive Lysis Buffer (Promega, Madison, Wis.). Reporter activity was measured using a MicroBeta Jet 1450 (Perkin Elmer, Boston, Mass.) following sequential 50 ul additions of firefly and Renilla luciferase substrates as described in the manufacturers protocol (Promega). Luciferase activities were expressed as a percentage of the signals observed in the compound-free control wells. The amount of compound required to reduce Renilla luciferase expression by 50% is defined as the 50% effective concentration, or EC50. The amount of compound that reduces firefly luciferase expression by 50% is defined as the 50% cytotoxic concentration, or CC50. A therapeutic index (TI) is calculated by dividing the CC50 by the EC50.
On the technique in general: Replicon systems follow genome replication, usually without infectious particles.

In series [4] the test system is HCV dual reporter subgenomic replicon (B6b cell line). The series is described as follows: HCV dual reporter subgenomic replicon assay, Renilla luciferase (antiviral activity). The format is cell-based. Conditions: Hepatitis C virus, 72 h; 50% reduction of Renilla luciferase expression, 3 days incubation. The protocol:
The compounds described herein were tested for antiviral activity utilizing a dual-reporter replicon assay as described in U.S. patent application Ser. No. 10/818,075 (the '075 application), filed Apr. 5, 2004. The disclosure of the '075 application is incorporated herein.
as §1, §2, §3

Read-outs that look alike come from different tables or passages of the source.

T1 sequence (P27958 1027-1657): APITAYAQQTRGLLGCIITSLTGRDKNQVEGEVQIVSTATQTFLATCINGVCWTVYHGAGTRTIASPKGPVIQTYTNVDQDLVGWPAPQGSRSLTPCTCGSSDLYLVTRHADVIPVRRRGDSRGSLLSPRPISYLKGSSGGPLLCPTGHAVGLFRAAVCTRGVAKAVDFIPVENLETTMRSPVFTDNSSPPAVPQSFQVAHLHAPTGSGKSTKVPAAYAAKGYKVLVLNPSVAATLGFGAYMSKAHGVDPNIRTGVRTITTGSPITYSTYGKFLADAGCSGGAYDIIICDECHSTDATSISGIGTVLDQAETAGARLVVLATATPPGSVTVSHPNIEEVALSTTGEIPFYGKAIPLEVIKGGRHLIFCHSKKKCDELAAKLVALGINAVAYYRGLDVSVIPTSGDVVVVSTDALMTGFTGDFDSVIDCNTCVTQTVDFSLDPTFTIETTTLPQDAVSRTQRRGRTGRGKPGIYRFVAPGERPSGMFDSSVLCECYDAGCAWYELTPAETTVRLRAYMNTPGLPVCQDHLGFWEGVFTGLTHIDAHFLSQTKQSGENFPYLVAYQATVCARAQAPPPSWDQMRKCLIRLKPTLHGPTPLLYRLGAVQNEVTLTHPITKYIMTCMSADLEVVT
T1 sequence (P27958 1658-1711): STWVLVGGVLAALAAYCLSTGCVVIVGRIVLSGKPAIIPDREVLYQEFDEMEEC

As to `COC(=O)[C@@]12C[C@H]1/C=C\CCCCC[C@H](NC(=O)OC(C)(C)C)C(=O)N1C[C@H](Oc3nc(-c4ccccn4)nc4ccsc34)C[C@H]1C(=O)N2`, in series [1] (from C=CCCCCC[C@H](NC(=O)OC(C)(C)C)C(=O)N1C[C@H](Oc2nc(-c3ccccn3)nc3ccsc23)C[C@H]1C(=O)N[C@]1(C(=O)OC)C[C@H]1C=C, Grubbs II (0.15 equiv), 5.0 mM, 2.0 h), the ring closure, isolated yield was found to be 25%.

Consider `COC(=O)[C@@]12C[C@H]1/C=C\CCCCC[C@H](NC(=O)OC(C)(C)C)C(=O)N1C[C@H](Oc3nc(-c4cc(C)nn4C)nc4ccsc34)C[C@H]1C(=O)N2`, for which, in series [1] (from C=CCCCCCC(NC(=O)OC(C)(C)C)C(=O)N1CC(Oc2nc(-c3cc(C)nn3C)nc3ccsc23)CC1C(=O)NC1(C(=O)OC)CC1C=C, Grubbs II (0.15 equiv), 5.0 mM, 2.0 h), the ring closure, isolated yield is 38%.

For the compound `COC(=O)[C@@]12C[C@H]1/C=C\CCCCC[C@H](NC(=O)OC(C)(C)C)C(=O)N1C[C@H](Oc3nc(-c4ccccn4)nc4sccc34)C[C@H]1C(=O)N2`, the ring closure, isolated yield in series [1] (from C=CCCCCC[C@H](NC(=O)OC(C)(C)C)C(=O)N1C[C@H](Oc2nc(-c3ccccn3)nc3sccc23)C[C@H]1C(=O)N[C@]1(C(=O)OC)C[C@H]1C=C, Grubbs II (0.15 equiv), 5.0 mM, 2.0 h) was 38%.

Take `COC(=O)[C@@]12C[C@H]1/C=C\CCCCCC(NC(=O)OC(C)(C)C)C(=O)N1C[C@H](Oc3cc(-c4ccccn4)nc4ccsc34)C[C@H]1C(=O)N2` (stereo partly shown): in series [1] (from C=CCCCCCC(NC(=O)OC(C)(C)C)C(=O)N1C[C@H](Oc2cc(-c3ccccn3)nc3ccsc23)C[C@H]1C(=O)N[C@]1(C(=O)OC)C[C@H]1C=C, Grubbs II (0.25 equiv), 2.0 mM, 4.0 h), the ring closure, isolated yield was 24%.

One may read the Ki as the dissociation constant of the complex between target and ligand, obtained from inhibition or displacement. Lower therefore signals a stronger hold on the target. By CC50 is commonly meant the concentration giving 50% cytotoxicity. In general, EC50 refers to the midpoint of the concentration-response curve. `O=C(N[C@H]1CCCCC/C=C\[C@@H]2C[C@@]2(C(=O)O)NC(=O)[C@@H]2C[C@@H](Oc3nc(-c4ccccn4)nc4ccsc34)CN2C1=O)OC1CCC1` [Example 43, (2R,6S,12Z,13aS,14aR,16aS)-6-{[(cyclobutyloxy)carbonyl]amino}-5,16-dioxo-2-[(2-pyridin-2-ylthieno[3,2-d]pyrimidin-4-yl)oxy]-1,2,3,6,7,8,9,10,11,13a,14,15,16,16a-tetradecahydrocyclopropa[e]pyrrolo[1,2-a][1,4]diazacyclopentadecine-14a(5H)-carboxylic acid] returned a Ki in series [2] of 0.02 µM. In series [3], the cytotoxic concentration (CC50) at 3 days is above 320 µM. In series [4], the half-maximal effective concentration (EC50) is 0.19 µM.

The record behind these values is patent US20070249637A1, “Inhibitors Of Hepatitis C Virus Protease, And Compositions And Treatments Using The Same” (priority 2004, published 2007).
